Experimental data published in patent US6214859A, “Ethylamine derivatives” (Fujimoto Brothers Co., Ltd., priority 1997, dated 2001).
Counter-ions that a name gives are not always drawn.

Experiments:
[1] = system: dopamine release, striatum; assay: Release of biogenic amines from brain tissue: dopamine, striatum; assay type: in vivo, Wistar rats
Description: (§1) The method described in Life Sci., 56, 611-620 (1995) was used. After Wistar rats were decapitated, appropriate brain samples, which were striatun, substantia nigra, tuberculum olfactorium, locus coeruleus and raphe, were removed quickly and soaked in oxygenated (95% O2 and 5% CO2) Krebs solution at 37° C. The composition of Krebs solution was as follows in […]: NaCl 111, KCl 4.7, CaCl2 2.5, MgSO4 1.64, NaHCO3 25, KH2 PO4 1.2, glucose 11, 50 mg/l ascorbic add and 20 mg/l EDTA-2 Na. The preparations, soaked in one organ bath, were as follows: 1) four pieces of striatum (each halved), 2) four pieces of substantia nigra, 3) four pieces of tuberculum olfactorium; 4) eight pieces of locus coeruleus; 5) eight pieces of raphe. After incubation of the appropriate tissue for 20 min, the Krebs solution was replaced, the tissue soaked for 20 min in Krebs solution dissolving the compounds of this invention and the amount of biogenic amine released during this period of time was estimate. The compounds of this invention and PPAP, control compound, were dissolved in saline and were administered subcutaneously before 30 min to removing brain sample. For measuring noradrenaline and dopamine, samples were purified on 60 mg alumina containing micro columns (BDH Chemicals Ltd.) according to the method described in J. Pharmacol. Exp. Ther., 138, 360-372 (1962) For measuring serotonin, samples were purified on 15 mg Sephadex G-10 micro columns (Pharmacia). Dopamine, noradrenaline and serotonin were determined by high performance liquid chromatography (Waters 746 data module) with electrochemical detection (Waters 460 electrochemical detector). Waters Resolve 5μ Spherical C18 3.9×150 mm column was used as separating column and triethylamine-phosphate buffer (pH 5.2), containing 200 mg/l octane sulfonate sodium and 18 mg/l EDTA-2 Na with 6% acetonitrile, was used as mobile phase. The release amount of appropriate amine was noted as nmol/g tissue released for 20 min. deference of means tested by Student's t-test and significant level was set at P<.05.

human platelet MAO-B = target: T1, human platelet MAO-B (Homo sapiens, UniProt P27338); assay: biochemical; details: 10^-5 M; read-out: Inhibition rate of MAO-B
T1 construct: The suspension was used as enzyme for MAO activity assay in blood platelets; from tissue; host or cells: human blood platelets (frozen, thawed and sonicated platelet rich plasma)
T1 sequence (P27338 1-520): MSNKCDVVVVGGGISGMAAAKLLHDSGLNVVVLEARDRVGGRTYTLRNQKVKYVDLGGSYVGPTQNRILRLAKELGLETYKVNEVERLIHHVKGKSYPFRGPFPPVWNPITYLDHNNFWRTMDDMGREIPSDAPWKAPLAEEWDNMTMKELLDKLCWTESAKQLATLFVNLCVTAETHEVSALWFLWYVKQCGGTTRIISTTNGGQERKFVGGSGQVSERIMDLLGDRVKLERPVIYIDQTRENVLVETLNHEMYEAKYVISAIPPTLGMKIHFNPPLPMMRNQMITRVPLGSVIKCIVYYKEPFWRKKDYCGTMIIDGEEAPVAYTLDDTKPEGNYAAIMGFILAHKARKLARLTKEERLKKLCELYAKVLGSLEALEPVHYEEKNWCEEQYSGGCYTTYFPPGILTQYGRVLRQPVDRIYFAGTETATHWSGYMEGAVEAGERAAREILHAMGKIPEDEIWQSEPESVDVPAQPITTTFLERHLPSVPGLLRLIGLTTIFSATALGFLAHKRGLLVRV
Description: Human blood added with 3.8% citric acid was centrifuged at 950 rpm for 10 min and platelet rich plasma (PRP) was obtained. The residual blood cell was centrifuged at 3,000 rpm for 10 min and platelet poor plasma (PPP) was obtained. After blood platelets were measured from a part of PRP, PRP and PPP were frozen at -20° C. They were thawed and were sonicated to be dispersed and suspended when MAO activity was measured. The suspension was used as enzyme for MAO activity assay in blood platelets. In addition, almost all of MAO in blood platelets have been known to be B type.
MAO-B activity was determined according to the method described in Biochem. Pharmacol., 14, 1684-1685 (1965). […] The mixture was incubated at 37° C. for 5 min. After 80 μl of PRP or PPP was added to it, the mixture was incubated at 37° C. for 20 min. Thereafter, 120 μl of substrate (0.33 mg/ml kynuramine dihydrobromide) was added thereto. After incubation at 37° C. for 30 min, 800 μl of 10% trichloroacetic acid were added to stop the reaction and the solution was centrifuged at 3,000 rpm for 10 min. To 1 ml of the supernatant, 2 ml of 1 N NaOH was added and fluorescence of the solution was measured at Ex 312 nm and Em 380 nm. PRP was prepared to 250,000 cell/μl as amounts of blood platelets with […] phosphate buffer solution and 4-hydroxyquinoline was used as standard for measurement.

[2] = system: dopamine release, substantia nigra; assay: Release of biogenic amines from brain tissue: dopamine, substantia nigra; assay type: in vivo, Wistar rats
Description: as §1

[3] = system: dopamine release, tuberculum olfactorium; assay: Release of biogenic amines from brain tissue: dopamine, tuberculum olfactorium; assay type: in vivo, Wistar rats
Description: as §1

[4] = system: noradrenaline release, locus coeruleus; assay: Release of biogenic amines from brain tissue: noradrenaline, locus coeruleus; assay type: in vivo, Wistar rats
Description: as §1

serotonin release, raphe = assay: Release of biogenic amines from brain tissue: serotonin, raphe; assay type: in vivo, Wistar rats
Description: as §1

[5] = Toxicity screening using primary cultured hepatocyte (LDH release); assay type: cell-based, rat; details: rat, primary hepatocytes, 24 hr, control 0.5% saline or 0.5% DMSO, read-out: Percent control of LDH release
Description: The hepatocytes was prepared from rat liver by collagenase perfusion method and suspension containing 5×10^5 cells/ml were prepared. After cultivation for 24 hr, the suspension was exchanged to the William's Medium E (GIBCO BRL) containing 10 or 100 μM of the compounds of this invention. After cultivation for 24 hr, the activity of lactate dehydrogenase (LDH) released in the medium was measured.

[6] = system: rats reduced learning ability by tetrabenazine; assay: Conditioned avoidance task in the shuttle box (tetrabenazine-treated rats); assay type: in vivo, rat; details: tetrabenazine 1 mg/kg s.c., significance and direction
Description: The method described in Life Sci., 58, 817-827 (1996) was used. The effects on conditioned avoidance reflex (CARs) was analyzed in the shuttle box using male and female rats (weighing 200-220 g) whose leaning abilities were reduced by treatment of tetrabenazine. The instrument was constructed, according to the device described in Psychopharmacologia 10, 1-5 (1966) by the Research Institute for Electrical Industry (Budapest, Hungary). The male and female rats (weighing 200-220 g) were trained to cross the berrier under the influence of a conditioned stimulus (CS) (light flash and buzzer sounds). […] And the performance which was not related to this condition was noted as an intersignal reaction (IR). The rats were trained with 100 trials per day for 5 days. One trial consisted of 15 sec intertrial interval. The saline solution of tetrabenazine was administered at a dose of 1 mg/kg subcutaneously before one hour prior to the test and then the solution of the compounds of this invention were administered at the doses of 1, 2, 2.5 and 5 mg/kg subcutaneously with the simultaneous administration of tetrabenazine. The nmbers of CARs, EFs and IRs were automatically counted and evaluated by multi-way analysis of variance (ANOVA).

CCCNC(CC)Cc1ccc2ccccc2c1 (stereo not shown) [Compound No. 10]
Release of dopamine, striatum ([1]; 1.00 mg/kg s.c.): 3.3 ± 0.22 nmol/g tissue, for 20 min | inhibition at 10 µM (human platelet MAO-B): 37.2% | Release of dopamine, substantia nigra ([2]; 1.00 mg/kg s.c.): 6.2 ± 0.31 nmol/g tissue, for 20 min | Release of dopamine, tuberculum olfactorium ([3]; 1.00 mg/kg s.c.): 5.6 ± 0.35 nmol/g tissue, for 20 min | Release of noradrenaline, locus coeruleus ([4]; 1.00 mg/kg s.c.): 2.9 ± 0.15 nmol/g tissue, for 20 min | Release of serotonin, raphe (serotonin release, raphe; 1.00 mg/kg s.c.): 0.603 ± 0.10 nmol/g tissue, for 20 min

CCCC(Cc1ccc2ccccc2c1)NCC(C)(C)C (stereo not shown) [Compound No. 14]
activity at 24 h, 10 µM [5]: 108 ± 4.18% | activity at 24 h, 100 µM [5]: 131 ± 7.08%

CCCNC(CCC)Cc1ccc2cc(OC)ccc2c1 (stereo not shown) [Compound No. 15]
Condition Avoidance Reflex (CARs) ([6]; 5 mg/kg s.c.): * .Arrow-up bold.

CCCNC(CCC)Cc1cc2ccccc2[nH]1 (stereo not shown) [Compound No. 19, 1-(Indol-2-yl)-2-propylaminopentane Hydrochloride]
activity at 24 h, 10 µM [5]: 82.4 ± 8.34% | activity at 24 h, 100 µM [5]: 180 ± 5.54%

CCCCNC(CCC)Cc1ccc2c(c1)OCO2.Cl (stereo not shown) [Compound No. 29, 1-(1,3-Benzodioxol-5-yl)-2-butylaminopentane Hydrochloride]
activity at 24 h, 10 µM [5]: 103 ± 6.02% | activity at 24 h, 100 µM [5]: 101 ± 2.94% | Condition Avoidance Reflex (CARs) ([6]; 2.5 mg/kg s.c.): * .Arrow-up bold. | Condition Avoidance Reflex (CARs) ([6]; 5 mg/kg s.c.): *** .Arrow-up bold. | Intersignal Reactions (IRs) ([6]; 5 mg/kg s.c.): *** .dwnarw.

CCCC(Cc1ccc2c(c1)OCO2)NC(C)CC (stereo not shown) [Compound No. 30]
activity at 24 h, 10 µM [5]: 99.5 ± 5.44% | activity at 24 h, 100 µM [5]: 138 ± 4.57% | Condition Avoidance Reflex (CARs) ([6]; 5 mg/kg s.c.): **** .Arrow-up bold. | Intersignal Reactions (IRs) ([6]; 5 mg/kg s.c.): * .dwnarw.

CCCC(Cc1ccc2c(c1)OCO2)NC(CC)CC (stereo not shown) [Compound No. 31]
activity at 24 h, 10 µM [5]: 102.5 ± 0.84% | activity at 24 h, 100 µM [5]: 153 ± 4.35%

CCCC(Cc1ccc2c(c1)OCO2)Nc1ccc(C)cc1.Cl (stereo not shown) [Compound No. 33, 1-(1,3-Benzodioxol-5-yl)-2-p-toluidinopentane Hydrochloride]
activity at 24 h, 10 µM [5]: 94 ± 4.16% | activity at 24 h, 100 µM [5]: 152 ± 5.71% | Condition Avoidance Reflex (CARs) ([6]; 5 mg/kg s.c.): * .Arrow-up bold. | Intersignal Reactions (IRs) ([6]; 5 mg/kg s.c.): * .dwnarw.

CCCNC(CCC)Cc1ccc2c(c1)OCCO2 (stereo not shown) [Compound No. 35, 1-(1,4-Benzodioxan-6-yl)-2-propylaminopentane Hydrochloride]
activity at 24 h, 10 µM [5]: 103 ± 10.6% | activity at 24 h, 100 µM [5]: 147 ± 5.07%

CCCNC(CCC)Cc1ccc2c(c1)CCO2 (stereo not shown) [Compound No. 36, 1-(2,3-Dihydrobenzofuran-5-yl)-2-propylaminopentane Hydrochloride]
activity at 24 h, 10 µM [5]: 101 ± 2.24% | activity at 24 h, 100 µM [5]: 111 ± 6.58%

CCCNC(CCC)Cc1ccc2c(c1)CCC2.Cl (stereo not shown) [Compound No. 37, 1-(Indan-5-yl)-2-propylaminopentane Hydrochloride]
activity at 24 h, 10 µM [5]: 83.8 ± 5.65% | activity at 24 h, 100 µM [5]: 193 ± 8.51% | Condition Avoidance Reflex (CARs) ([6]; 5 mg/kg s.c.): * .Arrow-up bold.

CCCNC(CCC)Cc1ccc2cc[nH]c2c1.Cl (stereo not shown) [compound 22, 1-(Indol-6-yl)-2-propylaminopentane Hydrochloride]
Release of dopamine, striatum ([1]; 0.01 mg/kg s.c.): 6.5 ± 0.06 nmol/g tissue, for 20 min | Release of dopamine, substantia nigra ([2]; 0.01 mg/kg s.c.): 11.9 ± 0.39 nmol/g tissue, for 20 min | Release of dopamine, tuberculum olfactorium ([3]; 0.01 mg/kg s.c.): 9.7 ± 0.17 nmol/g tissue, for 20 min | Condition Avoidance Reflex (CARs) ([6]; 0.5 mg/kg s.c.): * .Arrow-up bold. | Condition Avoidance Reflex (CARs) ([6]; 1 mg/kg s.c.): *** .Arrow-up bold. | Condition Avoidance Reflex (CARs) ([6]; 5 mg/kg s.c.): **** .Arrow-up bold. | Escape Failures (EFs) ([6]; 5 mg/kg s.c.): * .dwnarw. | Release of noradrenaline, locus coeruleus ([4]; 0.01 mg/kg s.c.): 4.8 ± 0.05 nmol/g tissue, for 20 min | Release of serotonin, raphe (serotonin release, raphe; 0.01 mg/kg s.c.): 0.322 ± 0.01 nmol/g tissue, for 20 min

CCCNC(CCC)Cc1cc2ccccc2s1.Cl (stereo not shown) [compound 38, 1-(2-Benzothienyl)-2-propylaminopentane Hydrochloride]
Release of dopamine, striatum ([1]; 0.01 mg/kg s.c.): 7.9 ± 0.19 nmol/g tissue, for 20 min | Release of dopamine, substantia nigra ([2]; 0.01 mg/kg s.c.): 14.0 ± 0.23 nmol/g tissue, for 20 min | Release of dopamine, tuberculum olfactorium ([3]; 0.01 mg/kg s.c.): 11.5 ± 0.14 nmol/g tissue, for 20 min | Escape Failures (EFs) ([6]; 1 mg/kg s.c.): **** .dwnarw. | Condition Avoidance Reflex (CARs) ([6]; 2.5 mg/kg s.c.): **** .Arrow-up bold. | Intersignal Reactions (IRs) ([6]; 2.5 mg/kg s.c.): * .Arrow-up bold. | Release of noradrenaline, locus coeruleus ([4]; 0.01 mg/kg s.c.): 3.6 ± 0.05 nmol/g tissue, for 20 min | Release of serotonin, raphe (serotonin release, raphe; 0.01 mg/kg s.c.): 0.375 ± 0.02 nmol/g tissue, for 20 min

CCCNC(CCC)Cc1csc2ccccc12.Cl (stereo not shown) [compound 39, 1-(3-Benzothienyl)-2-propylaminopentane Hydrochloride]
Release of dopamine, striatum ([1]; 0.01 mg/kg s.c.): 7.1 ± 0.15 nmol/g tissue, for 20 min | Release of dopamine, substantia nigra ([2]; 0.01 mg/kg s.c.): 12.0 ± 0.34 nmol/g tissue, for 20 min | Release of dopamine, tuberculum olfactorium ([3]; 0.01 mg/kg s.c.): 10.9 ± 0.25 nmol/g tissue, for 20 min | Escape Failures (EFs) ([6]; 1 mg/kg s.c.): *** .dwnarw. | Condition Avoidance Reflex (CARs) ([6]; 2.5 mg/kg s.c.): **** .Arrow-up bold. | Escape Failures (EFs) ([6]; 2.5 mg/kg s.c.): **** .dwnarw. | Release of noradrenaline, locus coeruleus ([4]; 0.01 mg/kg s.c.): 4.1 ± 0.15 nmol/g tissue, for 20 min | Release of serotonin, raphe (serotonin release, raphe; 0.01 mg/kg s.c.): 0.256 ± 0.01 nmol/g tissue, for 20 min
